Where two headings read alike, the source gives them in different places.
Tests used:
[1] = tested on: DENV-2 16681 strain; assay: DENV-2 antiviral assay (eGFP-labeled virus, Vero cells); format: cell-based, Dengue virus; conditions: for EC50: DENV-2 16681 eGFP, Vero cells, MOI 0.5, 3 days; for SI: SI=CC50/EC50, DENV-2 antiviral assay
Protocol: The antiviral activity of all the compounds of the invention was tested against the DENV-2 16681 strain which was labeled with enhanced green fluorescent protein (eGPF). The culture medium consists of minimal essential medium supplemented with 2% of heat-inactivated fetal calf serum, 0.04% gentamycin (50 mg/mL) and 2 mM of L-glutamine. Vero cells, obtained from ECACC, were suspended in culture medium and 25 μL was added to 384-well plates (2500 cells/well), which already contain the antiviral compounds. Typically, these plates contain a 5-fold serial dilution of 9 dilution steps of the test compound at 200 times the final concentration in 100% DMSO (200 nL). […] Finally, each plate contains wells which are assigned as virus controls (containing cells and virus in the absence of compound), cell controls (containing cells in the absence of virus and compound) and medium controls (containing medium in the absence of cells, virus and compounds). To the wells assigned as medium control, 25 μL of culture medium was added instead of Vero cells. Once the cells were added to the plates, the plates were incubated for 30 minutes at room temperature to allow the cells to distribute evenly within the wells. Next, the plates were incubated in a fully humidified incubator (37° C., 5% CO2) until the next day. Then, DENV-2 strain 16681, labeled with eGFP, was added at a multiplicity of infection (MOI) of 0.5. Therefore, 15 μL of virus suspension was added to all the wells containing test compound and to the wells assigned as virus control. In parallel, 15 μL of culture medium was added to the medium and cell controls. Next, the plates were incubated for 3 days in a fully humidified incubator (37° C., 5% CO2). At the day of the read out, the eGFP fluorescence was measured using an automated fluorescence microscope at 488 nm (blue laser). Using an in-house LIMS system, inhibition dose response curves for each compound were calculated and the half maximal effective concentration (EC50) was determined. Therefore, the percent inhibition (I) for every test concentration is calculated using the following formula: I=100*([…])/(SVC−SCC); ST, SCC and SVC are the amount of eGFP signal in the test compound, cell control and virus control wells, respectively. The EC50 represents the concentration of a compound at which the virus replication is inhibited with 50%, as measured by a 50% reduction of the eGFP fluorescent intensity compared to the virus control. The EC50 is calculated using linear interpolation (Table 1).

[2] = in vitro; conditions: African green monkey
[3] = tested on: DENV-2; conditions: analogous DENV-2 antiviral assay, reported activity; cited from earlier work
[4] = tested on: DENV-4 strain H241; assay: Tetravalent RT-qPCR assay, serotype 4; format: cell-based, Dengue virus; conditions: for EC50: Dengue virus, DENV4, Vero, 72 h, RT-qPCR serotype 4 H241, Protocol A, Vero cells, day 3; for SI: RT-qPCR serotype 4 H241
Protocol: (§1) The antiviral activity of the compounds of the invention was tested against DENV-1 strain TC974#666 (NCPV), DENV-2 strain 16681, DENV-3 strain H87 (NCPV) and DENV-4 strain H241 (NCPV) in a RT-qPCR assay. Therefore, Vero cells were infected with either DENV-1, or -2, or -3, or -4 in the presence or absence of test compounds. At day 3 post-infection, the cells were lysed and cell lysates were used to prepare cDNA of both a viral target (the 3′UTR of DENV; Table 2) and a cellular reference gene (β-actin, Table 2). Subsequently, a duplex real time PCR was performed on a Lightcycler480 instrument. The generated Cp value is inversely proportional to the amount of RNA expression of these targets. Inhibition of DENV replication by a test compound result in a shift of Cp's for the 3′UTR gene. On the other hand, if a test compound is toxic to the cells, a similar effect on β-actin expression will be observed. The comparative ΔΔCp method is used to calculate EC50, which is based on the relative gene expression of the target gene (3′UTR) normalized with the cellular housekeeping gene (β-actin). In addition, CC50 values are determined based on the Cp values acquired for the housekeeping gene β-actin.
(§2) The culture medium consisted of minimal essential medium supplemented with 2% of heat-inactivated fetal calf serum, 0.04% gentamycin (50 mg/mL) and 2 mM of L-glutamine. Vero cells, obtained from ECACC, were suspended in culture medium and 75 μL/well was added in 96-well plates (10000 cells/well), which already contain the antiviral compounds. […] In addition, each plate contains wells which are assigned as virus controls (containing cells and virus in the absence of compound) and cell controls (containing cells in the absence of virus and compound). Once the cells were added in the plates, the plates were incubated in a fully humidified incubator (37° C., 5% CO2) until the next day. Dengue viruses serotype-1, 2, 3 and 4 were diluted in order to obtain a Cp of ˜22-24 in the assay. Therefore, 25 μL of virus suspension was added to all the wells containing test compound and to the wells assigned as virus control. In parallel, 25 μL of culture medium was added to the cell controls. Next, the plates were incubated for 3 days in a fully humidified incubator (37° C., 5% CO2). After 3 days, the supernatant was removed from the wells and the cells were washed twice with ice-cold PBS (˜100 μL). The cell pellets within the 96-well plates were stored at −80° C. for at least 1 day. Next, RNA was extracted using the Cells-to-CT™ lysis kit, according to the manufacturer's guideline (Life Technologies). The cell lysates can be stored at −80° C. or immediately used in the reverse transcription step.
(§3) In preparation of the reverse transcription step, mix A (table 3A) was prepared and 7.57 μL/well was dispensed in a 96-well plate. After addition of 5 μL of the cell lysates, a five minute denaturation step at 75° C. was performed (table 3B). Afterwards, 7.43 μL of mix B was added (table 3C) and the reverse transcription step was initiated (table 3D) to generate cDNA.
(§4) Finally, a RT-qPCR mix was prepared, mix C (table 4A), and 22.02 μL/well was dispensed in 96-well LightCycler qPCR plates to which 3 μL of cDNA was added and the qPCR was performed according to the conditions in table 4B on a LightCycler 480.
(§5) Using the LightCycler software and an in-house LIMS system, dose response curves for each compound were calculated and the half maximal effective concentration (EC50) and the half maximal cytotoxic concentration (CC50) were determined (Tables 5-8).

[5] = tested on: DENV-2 strain 16681; assay: Tetravalent RT-qPCR assay, serotype 2; format: cell-based, Dengue virus; conditions: for EC50: Dengue virus, DENV2, Vero, 72 h, RT-qPCR serotype 2 16681, Protocol A, Vero cells, day 3; for SI: RT-qPCR serotype 2 16681
Protocol: as §1, §2, §3, §4, §5

[6] = tested on: Vero cells; conditions: African green monkey
[7] = tested on: DENV-1 strain TC974#666; assay: Tetravalent RT-qPCR assay, serotype 1; format: cell-based, Dengue virus; conditions: for EC50: Dengue virus, DENV1, Vero, 72 h, RT-qPCR serotype 1 TC974#666, Protocol A, Vero cells, day 3, read-out: EC50; for SI: RT-qPCR serotype 1 TC974#666
Protocol: as §1, §2, §3, §4, §5

[8] = tested on: DENV-3 strain H87; assay: Tetravalent RT-qPCR assay, serotype 3; format: cell-based, Dengue virus; conditions: for EC50: Dengue virus, DENV3, Vero, 72 h, RT-qPCR serotype 3 H87, Protocol A, Vero cells, day 3, read-out: EC50; for SI: RT-qPCR serotype 3 H87
Protocol: as §1, §2, §3, §4, §5

[9] = in vitro; format: cell-based; conditions: African green monkey, CC50
Protocol: as §1, §2, §5

[10] = tested on: Vero cells; assay: in vitro; format: cell-based; conditions: African green monkey, 3 days
Protocol: as §1, §2, §5

[11] = Dengue virus, DENV2, Vero, 72 h

COc1cc(NC(C(=O)c2c[nH]c3cc(F)c(C)cc23)c2ccc(Cl)cc2OC)cc(OCCO)c1 (racemic) [Compound 9, 2-(4-chloro-2-methoxyphenyl)-1-(6-fluoro-5-methyl-1H-indol-3-yl)-2-((3-(2-hydroxyethoxy)-5-methoxyphenyl)amino)ethanone]
melting point: 177 °C
EC50 [1, 11]: 1.2 nM
SI [1]: 2480
CC50 [2]: 3100 nM

COc1cc(NC(C(=O)c2c[nH]c3ccc(C)cc23)c2ccc(F)cc2OC)cc(OCCO)c1 (racemic) [Compound 5, 2-(4-fluoro-2-methoxyphenyl)-2-((3-(2-hydroxyethoxy)-5-methoxyphenyl)amino)-1-(5-methyl-1H-indol-3-yl)ethanone]
melting point: 199 °C
EC50 [1, 11]: 4.8 nM
SI [1]: 3190
CC50 [2]: 14000 nM

COc1cc(NC(C(=O)c2c[nH]c3ccccc23)c2ccc(F)cc2)cc(OCCO)c1 (centres unmarked) [(350) of WO-2013/045516]
EC50 [3]: 10 nM
SI [3]: 3462

COc1cc(NC(C(=O)c2c[nH]c3cc(OC)c(Cl)cc23)c2ccc(F)cc2OC)cc(OCCO)c1 (single isomer, unassigned) [Compound 2A]
EC50 [4]: 230 nM
SI [4]: 9.1
EC50 [5]: 1 nM
SI [5]: 3350
CC50 [6]: 4500 nM
EC50 [7]: 9.2 nM
SI [7]: 350
EC50 [8]: 34 nM
SI [8]: 90
EC50 [1]: 0.71 nM
SI [1]: 6340
CC50 at 3 days [9]: 2900 nM

COc1cc(NC(C(=O)c2c[nH]c3cc(OC)c(Cl)cc23)c2ccc(F)cc2OC)cc(OCCO)c1 (racemic) [Compound 2, 1-(5-chloro-6-methoxy-1H-indol-3-yl)-2-(4-fluoro-2-methoxyphenyl)-2-((3-(2-hydroxyethoxy)-5-methoxyphenyl)amino)ethanone]
melting point: 210 °C
EC50 [1, 11]: 1.5 nM
SI [1]: 4410
CC50 [2]: 6700 nM

COc1cc(NC(C(=O)c2c[nH]c3cc(F)c(C)cc23)c2ccc(F)cc2OC)cc(OCCO)c1 (racemic) [Compound 3, 2-(4-fluoro-2-methoxyphenyl)-1-(6-fluoro-5-methyl-1H-indol-3-yl)-2-((3-(2-hydroxyethoxy)-5-methoxyphenyl)amino)ethanone]
melting point: 197 °C
EC50 [1, 11]: 3.5 nM
SI [1]: 1140
CC50 [2]: 4000 nM

COc1cc(NC(C(=O)c2c[nH]c3cc(OC(F)(F)F)c(C)cc23)c2ccc(F)cc2OC)cc(OCCO)c1 (single isomer, unassigned) [Compound 4B]
EC50 [4]: 300 nM
SI [4]: 8.1
EC50 [5]: 6.6 nM
SI [5]: 553
CC50 [6]: 3300 nM
EC50 [7]: 24 nM
SI [7]: 128
EC50 [8]: 120 nM
SI [8]: 16
EC50 [1]: 8.1 nM
SI [1]: 409
CC50 at 3 days [9]: 3800 nM

COc1cc(NC(C(=O)c2c[nH]c3cc(OC)c(C)c(F)c23)c2ccc(Cl)cc2OC)cc(OCCO)c1 (single isomer, unassigned) [Compound 12B]
EC50 [4]: 180 nM
SI [4]: >15
EC50 [5]: 0.25 nM
SI [5]: >12200
CC50 [6]: 4600 nM
EC50 [7]: 4.9 nM
SI [7]: >508
EC50 [8]: 20 nM
SI [8]: >106
EC50 [1]: 0.26 nM
SI [1]: >48400
CC50 [10]: > 2500 nM
CC50 at 3 days [9]: > 2200 nM

COc1cc(NC(C(=O)c2c[nH]c3c(C)cc(Cl)cc23)c2ccc(F)cc2OC)cc(OCCO)c1 (single isomer, unassigned) [Compound 1A]
EC50 [4]: 220 nM
SI [4]: 8.7
EC50 [5]: 3.2 nM
SI [5]: 1080
CC50 [6]: 3600 nM
EC50 [7]: 6.2 nM
SI [7]: 461
EC50 [8]: 39 nM
SI [8]: 49
EC50 [1]: 1.7 nM
SI [1]: 2070
CC50 at 3 days [9]: 2900 nM

COc1cc(NC(C(=O)c2c[nH]c3c(C)cc(Cl)cc23)c2ccc(F)cc2OC)cc(OCCO)c1 (racemic) [Compound 1, 1-(5-chloro-7-methyl-1H-indol-3-yl)-2-(4-fluoro-2-methoxyphenyl)-2-((3-(2-hydroxyethoxy)-5-methoxyphenyl)amino)ethanone]
melting point: 118 °C
EC50 [1, 11]: 2.7 nM
SI [1]: 1800
CC50 [2]: 4900 nM

— patent US10730884B2, “Substituted indole compound derivatives as dengue viral replication inhibitors” (Janssen Pharmaceuticals, Inc., priority 2016, dated 2020)
